Measurements reported in PubChem BioAssay AID1963850 (Molecular Pharmacology Branch, DTP, NCI, 2024).

System: 192522-019-R-J2-PDC complex tumor spheroid viability
Assay: Anticancer human tumor 192522-019-R-J2-PDC patient-derived colon adenocarcinoma cell line growth inhibition [POLQ]
Details: for IC50: curve of first compound; for viability, T/C: stronger effect = lower value
Description: Multicellular complex tumor spheroid response to Polymerase (POL) inhibitors (novobiocin, ART-558, RP6685) in combination with a variety of drugs and investigational agents in selected tumor cell lines
The POL inhibitors (novobiocin, ART-558, and RP6685) were evaluated both individually and in combination with standard of care and investigational anticancer small molecules within a complex spheroid model of solid tumors. . Complex spheroids include a stromal component modeled by human endothelial cells (HUVEC) and fibroblasts modeled by human mesenchymal stem cells (MSCs). The concentration ranges selected for each drug and investigational agent were based upon clinically achievable concentrations if the clinical Cmax of the agent was known.
Compounds. The drugs and investigational agents: novobiocin (NSC847541), ART-558 (NSC835418), RP-6685 (NSC848927), peposertib (NSC802822), ceralasertib (NSC780249), elimusertib (NSC800525), camonsertib (NSC841442), AZD-1390 (NSC803789), olaparib (NSC753686), talazoparib (NSC767125), rucaparib (NSC756644), sotorasib (NSC818433), MRTX-1133 (NSC836407), SN-38 (NSC673596), topotecan (NSC609699), epotoside (NSC141540), doxorubicin (NSC123127), gemcitabine (NSC613327), 5-fluorouracil (NSC19893), paclitaxel (NSC125973), vemurafenib (NSC761431), MSA-2 (NSC828583), SN-011 (NSC837082), adavosertib (NSC754352), prexasertib (NSC758257), carboplatin (NSC241240) and oxaliplatin (NSC266046), were obtained from the National Cancer Institute (NCI) Developmental Therapeutics Program Chemical Repository (21). The FDA-approved anticancer drug set is available from the Developmental Therapeutics Program at https://dtp.cancer.gov/organization/dscb/obtaining/. […] The stock solutions were prepared in dimethyl sulfoxide (DMSO, Sigma-Aldrich, St. Louis, MO, cat. D2650), except for the platinum compounds which were prepared in saline (Quality Biological, Gaithersburg, MD, cat. 114-055-101), at 800-fold the tested concentration and stored at -70 degrees C prior to their use. All drugs and investigational agents were tested over a range starting from a high concentration at or near the clinical Cmax and decreasing in half-log increments. If the clinical Cmax for an agent had not been determined, the highest concentration tested was 10 microM, except for SN-38, which was tested at a high concentration of 1 microM.
Cell Culture. All cells were maintained in an incubator at 37 degrees C and 5% CO2 with 95% humidity. The PDC lines were cultured according to standard operating procedures established by the NCI PDMR (https://pdmr.cancer.gov). Table 3 of the manuscript, lists the cell lines along with the number of the three cell types plated to form the mct-spheroids and media for tumor cell growth. After thawing, all PDC lines, except 997537-175-T-J1-PDC and 415267-285-R-J2-PDC, were cultured in Matrigel-coated flasks prepared with a working solution of 1X Ham's F-12 nutrient mix, without supplementation (Thermo Fisher Scientific, cat. 11765054), 100 U/mL penicillin-streptomycin (Thermo Fisher Scientific, cat. 15140122), and 2.5% Matrigel (Corning Inc., Corning, NY, cat. 354248) for the first three passages. The two PDC lines 997537-175-T-J1-PDC and 415267-285-R-J2-PDC were cultured on uncoated flasks. The 857933-349-R-J2-PDC line was cultured in 6C/Colon 1B media containing advanced DMEM/F-12 (Thermo Fisher Scientific, cat. 12634028), 10 mM HEPES (Thermo Fisher Scientific, cat. 15630080), 1X GlutaMAX supplement (Thermo Fisher Scientific, cat. 35050061), 0.1 mg/mL primocin (InvivoGen, San Diego, CA, cat. ant-pm-2), 10% defined fetal bovine serum, heat inactivated (HyClone Laboratories Inc., Logan, UT, cat. SH30070.03HI), 50% L-WRN conditioned media (ATCC, cat. CRL-3276), 1.25 mM N-Acetyl-L-cysteine (Sigma-Aldrich, cat. A9165), 10 mM nicotinamide (Sigma-Aldrich, cat. N0636), 1X B-27 supplement (Thermo Fisher Scientific, cat. 17504044), 1X N-2 supplement (Thermo Fisher Scientific, cat. […]

[1] = second compound 0.0316 µM, first compound 0.0316 µM
[2] = second compound 0.0316 µM, first compound 0.1 µM
[3] = second compound 0.0316 µM, first compound 0.316 µM
[4] = second compound 0.0316 µM, first compound 1 µM
[5] = second compound 0.1 µM, first compound 0.0316 µM
[6] = second compound 0.1 µM, first compound 0.1 µM
[7] = second compound 0.1 µM, first compound 0.316 µM
[8] = second compound 0.1 µM, first compound 1 µM
[9] = second compound 0.316 µM, first compound 0.0316 µM
[10] = second compound 0.316 µM, first compound 0.1 µM
[11] = second compound 0.316 µM, first compound 0.316 µM
[12] = second compound 0.316 µM, first compound 1 µM
[13] = second compound 1 µM, first compound 0.0316 µM
[14] = second compound 1 µM, first compound 0.1 µM
[15] = second compound 1 µM, first compound 0.316 µM
[16] = second compound 1 µM, first compound 1 µM
[17] = second compound 3.16 µM, first compound 0.0316 µM
[18] = second compound 3.16 µM, first compound 0.1 µM
[19] = second compound 3.16 µM, first compound 0.316 µM
[20] = second compound 3.16 µM, first compound 1 µM
[21] = second compound 10 µM, first compound 0.0316 µM
[22] = second compound 10 µM, first compound 0.1 µM
[23] = second compound 10 µM, first compound 0.316 µM
[24] = second compound 10 µM, first compound 1 µM
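Note: spheroids exposed to drugs for seven days before reading.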
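Throughout, for viability, T/C: 100% = DMSO vehicle control viability in luminescence.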

Q: Which results are given for `C=CCn1c(=O)c2cnc(Nc3ccc(N4CCN(C)CC4)cc3)nc2n1-c1cccc(C(C)(C)O)n1` + Nc1ccc(C#CCN(C(=O)Cc2ncc(C(F)(F)F)cc2C(F)(F)F)c2ccc(F)cc2)nn1?
A: IC50 (second compound 0.0316 µM): 732 nM; IC50 (second compound 0.1 µM): 757 nM; IC50 (second compound 0.316 µM): 799 nM; IC50 (second compound 1 µM): 778 nM; IC50 (second compound 3.16 µM): 901 nM; IC50 (second compound 10 µM): 833 nM; viability, T/C (second compound 0.0316 µM, first compound 0.00316 µM): 104%; viability, T/C (second compound 0.0316 µM, first compound 0.01 µM): 103%; viability, T/C [1]: 93%; viability, T/C [2]: 91.8%; viability, T/C [3]: 92.4%; viability, T/C [4]: 34.1%; viability, T/C (second compound 0.1 µM, first compound 0.00316 µM): 107%; viability, T/C (second compound 0.1 µM, first compound 0.01 µM): 103%; viability, T/C [5]: 97.5%; viability, T/C [6]: 96.6%; viability, T/C [7]: 93.2%; viability, T/C [8]: 35.9%; viability, T/C (second compound 0.316 µM, first compound 0.00316 µM): 105%; viability, T/C (second compound 0.316 µM, first compound 0.01 µM): 97.4%; viability, T/C [9]: 92.3%; viability, T/C [10]: 99.8%; viability, T/C [11]: 93%; viability, T/C [12]: 39.5%; viability, T/C (second compound 1 µM, first compound 0.00316 µM): 103%; viability, T/C (second compound 1 µM, first compound 0.01 µM): 108%; viability, T/C [13]: 102%; viability, T/C [14]: 95.2%; viability, T/C [15]: 89.7%; viability, T/C [16]: 39%; viability, T/C (second compound 3.16 µM, first compound 0.00316 µM): 108%; viability, T/C (second compound 3.16 µM, first compound 0.01 µM): 101%; viability, T/C [17]: 104%; viability, T/C [18]: 94.8%; viability, T/C [19]: 97.8%; viability, T/C [20]: 45.3%; viability, T/C (second compound 10 µM, first compound 0.00316 µM): 112%; viability, T/C (second compound 10 µM, first compound 0.01 µM): 113%; viability, T/C [21]: 110%; viability, T/C [22]: 106%; viability, T/C [23]: 98.5%; viability, T/C [24]: 40.2%

Q: What does the source list for `CC(C)n1c(=O)n(C)c2cnc3cc(F)c(-c4ccc(OCCCN5CCCCC5)nc4)cc3c21` + Nc1ccc(C#CCN(C(=O)Cc2ncc(C(F)(F)F)cc2C(F)(F)F)c2ccc(F)cc2)nn1?
A: IC50 (second compound 0.0316 µM): > 10000 nM; IC50 (second compound 0.1 µM): > 10000 nM; IC50 (second compound 0.316 µM): > 10000 nM; IC50 (second compound 1 µM): > 10000 nM; IC50 (second compound 3.16 µM): > 10000 nM; IC50 (second compound 10 µM): > 10000 nM; viability, T/C [1]: 104%; viability, T/C [2]: 97.6%; viability, T/C [3]: 110%; viability, T/C [4]: 118%; viability, T/C (second compound 0.0316 µM, first compound 3.16 µM): 124%; viability, T/C (second compound 0.0316 µM, first compound 10 µM): 101%; viability, T/C [5]: 100%; viability, T/C [6]: 112%; viability, T/C [7]: 119%; viability, T/C [8]: 134%; viability, T/C (second compound 0.1 µM, first compound 3.16 µM): 122%; viability, T/C (second compound 0.1 µM, first compound 10 µM): 94%; viability, T/C [9]: 113%; viability, T/C [10]: 105%; viability, T/C [11]: 110%; viability, T/C [12]: 118%; viability, T/C (second compound 0.316 µM, first compound 3.16 µM): 123%; viability, T/C (second compound 0.316 µM, first compound 10 µM): 111%; viability, T/C [13]: 104%; viability, T/C [14]: 118%; viability, T/C [15]: 122%; viability, T/C [16]: 138%; viability, T/C (second compound 1 µM, first compound 3.16 µM): 137%; viability, T/C (second compound 1 µM, first compound 10 µM): 111%; viability, T/C [17]: 116%; viability, T/C [18]: 104%; viability, T/C [19]: 116%; viability, T/C [20]: 127%; viability, T/C (second compound 3.16 µM, first compound 3.16 µM): 120%; viability, T/C (second compound 3.16 µM, first compound 10 µM): 112%; viability, T/C [21]: 105%; viability, T/C [22]: 104%; viability, T/C [23]: 117%; viability, T/C [24]: 127%; viability, T/C (second compound 10 µM, first compound 3.16 µM): 127%; viability, T/C (second compound 10 µM, first compound 10 µM): 114%
